# T1: FXR (Homo sapiens, UniProt Q96RI1)
# T1 construct: expressed in transfected cells; host or cells: HEK293T
# T1 sequence (Q96RI1 1-486): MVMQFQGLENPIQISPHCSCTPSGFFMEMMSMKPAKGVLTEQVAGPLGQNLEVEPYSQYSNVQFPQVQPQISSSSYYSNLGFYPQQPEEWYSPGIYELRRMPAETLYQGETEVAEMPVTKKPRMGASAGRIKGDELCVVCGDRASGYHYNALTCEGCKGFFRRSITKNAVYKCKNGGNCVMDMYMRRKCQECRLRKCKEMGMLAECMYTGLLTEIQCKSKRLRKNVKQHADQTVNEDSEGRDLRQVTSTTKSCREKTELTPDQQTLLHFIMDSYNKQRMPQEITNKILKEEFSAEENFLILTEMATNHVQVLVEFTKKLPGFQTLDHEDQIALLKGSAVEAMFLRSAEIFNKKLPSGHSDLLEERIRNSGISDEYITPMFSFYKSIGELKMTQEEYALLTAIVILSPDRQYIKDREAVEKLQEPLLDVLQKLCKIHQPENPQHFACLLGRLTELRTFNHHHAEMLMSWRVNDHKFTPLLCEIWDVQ
# T1 sequence (P19793 1-462 partner): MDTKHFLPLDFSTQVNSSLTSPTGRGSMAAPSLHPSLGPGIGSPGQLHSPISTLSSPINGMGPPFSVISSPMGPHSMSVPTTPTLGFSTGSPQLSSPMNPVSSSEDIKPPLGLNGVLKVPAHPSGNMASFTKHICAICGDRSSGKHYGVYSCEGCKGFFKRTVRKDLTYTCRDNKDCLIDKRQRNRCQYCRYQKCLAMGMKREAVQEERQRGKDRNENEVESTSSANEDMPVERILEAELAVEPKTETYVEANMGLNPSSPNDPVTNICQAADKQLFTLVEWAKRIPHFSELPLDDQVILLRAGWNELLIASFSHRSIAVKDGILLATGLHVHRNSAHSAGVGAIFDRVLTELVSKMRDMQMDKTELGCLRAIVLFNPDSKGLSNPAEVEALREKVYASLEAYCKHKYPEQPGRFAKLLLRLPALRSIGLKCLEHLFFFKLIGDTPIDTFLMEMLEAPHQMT
# B1: hCES1A (Homo sapiens) (protein)
# chain: GHPSSPPVVDTVHGKVLGKFVSLEGFAQPVAIFLGIPFAKPPLGPLRFTPPQPAEPWSFVKNATSYPPMCTQDPKAGQLLSELFTNRKENIPLKLSEDCLYLNIYTPADLTKKNRLPVMVWIHGGGLMVGAASTYDGLALAAHENVVVVTIQYRLGIWGFFSTGDEHSRGNWGHLDQVAALRWVQDNIASFGGNPGSVTIFGESAGGESVSVLVLSPLAKNLFHRAISESGVALTSVLVKKGDVKPLAEQIAITAGCKTTTSAVMVHCLRQKTEEELLETTLKMKFLSLDLQGDPRESQPLLGTVIDGMLLLKTPEELQAERNFHTVPYMVGINKQEFGWLIPMQLMSYPLSEGQLDQKTAMSLLWKSYPLVCIAKELIPEATEKYLGGTDDTVKKKDLFLDLIADVMFGVPSVIVARNHRDAGAPTYMYEFQYRPSFSSDMKPKTVIGDHGDELFSVFGAPFLKEGASEEEIRLSKMVMKFWANFARNGNPNGEGLPHWPEYNQKEGYLQIGANTQAAQKLKDKEVAFWTNLFAKKAVEKPPQTE
# notes: 10xHis; made in house; host or cells: HEK293-F cells, pTT5 vector, purified from conditioned medium
# B2: hCES2A (Homo sapiens) (protein)
# chain: QDSASPIRTTHTGQVLGSLVHVKGANAGVQTFLGIPFAKPPLGPLRFAPPEPPESWSGVRDGTTHPAMCLQDLTAVESEFLSQFNMTFPSDSMSEDCLYLSIYTPAHSHEGSNLPVMVWIHGGALVFGMASLYDGSMLAALENVVVVIIQYRLGVLGFFSTGDKHATGNWGYLDQVAALRWVQQNIAHFGGNPDRVTIFGESAGGTSVSSLVVSPISQGLFHGAIMESGVALLPGLIASSADVISTVVANLSACDQVDSEALVGCLRGKSKEEILAINKPFKMIPGVVDGVFLPRHPQELLASADFQPVPSIVGVNNNEFGWLIPKVMRIYDTQKEMDREASQAALQKMLTLLMLPPTFGDLLREEYIGDNGDPQTLQAQFQEMMADSMFVIPALQVAHFQCSRAPVYFYEFQHQPSWLKNIRPPHMKADHGDELPFVFRSFFGGNYIKFTEEEEQLSRKMMKYWANFARNGNPNGEGLPHWPLFDQEEQYLQLNLQPAVGRALKAHRLQFWKKALPQKIQELEEPEERHTEL
# notes: as for B1
# Experiments:
# AB23A hydrolysis in HIMs = experiment: Chemical inhibition assay of AB23A hydrolysis in HIMs; format: biochemical, human; conditions: BNPP 50 μM, LPA 100 μM
# AB23A hydrolysis in HLMs = experiment: Chemical inhibition assay of AB23A hydrolysis in HLMs; format: biochemical, human; conditions: HLMs 0.1 mg/mL, AB23A 20 μM, 1 h; BNPP 50 μM, LPA 100 μM, GA 100 μM, boceprevir 20 μM, EDTA 20 μM
# Protocol: (§1) The inhibitory effects of a series of selective inhibitors of human hydrolases against AB23A hydrolysis were assessed. The selective inhibitors of human hydrolases including BNPP (50 μM, a specific inactivator of CES), boceprevir (20 μM, a potent inhibitor for CTSA), LPA (100 μM, a selective inhibitor for CES2A), GA (100 μM, a cholinesterase inhibitor), EDTA (20 μM, a selective PONs inhibitor). The incubation system included PBS, inhibitors, HLMs (0.1 mg/mL)/human plasma (25% dilution), and AB23A (20 μM). After reacting for 1 h, ice-cold acetonitrile was used to terminate the reaction. The supernatants by centrifuging were used to quantify the formation rates of AB by LC-UV analysis.
# FXR = biological target: T1, FXR; experiment: FXR transcriptional activation, Dual-Luciferase Reporter Assay in HEK293T cells; format: cell-based
# Protocol: The phFXR, phRXR (retinoid X receptor) and FXR-dependent reporter (EcRE-LUC) were expressed and cotransfected with the Gal4 reporter vector MH100 × 4-TK-Luc, then 1 μg of the relevant plasmid was combined with 1 μg of reporter plasmids and 0.1 μg of pREP7 (Renilla Luciferase) reporter, which was used to normalize transfection efficiencies. HEK293T cells were dispensed into 96 well plates using a volume of 100 μL and 1 × 10^5 cells per well.
# [1] = set-up: method as in Liu et al. (2022); conditions: oral administration of Qingfei Paidu Decoction, ref Liu et al. (2022); cited from earlier work
# [2] = test system: AB23A hydrolysis in human plasma; experiment: Chemical inhibition assay of AB23A hydrolysis in human plasma; format: biochemical; conditions: human plasma 25% dilution, AB23A 20 μM, 1 h; GA 100 μM, boceprevir 20 μM, EDTA 20 μM
# Protocol: as §1
# [3] = test system: T2, CC(=O)O[C@H](C[C@@H](C)C1=C2C[C@H](O)C3[C@@]4(C)CCC(=O)C(C)(C)C4CC[C@]3(C)[C@@]2(C)CC1)[C@H]1OC1(C)C; experiment: Kinetic analysis of AB23A hydrolysis in hSA; format: in vitro ADME, human; conditions: other: hSA
# T2 construct: purchased Sigma-Aldrich Lot#SLCC9268
# Protocol: (§2) The enzymatic kinetics of AB23A hydrolysis in different tissue preparations (HLMs, HIMs, human plasma) and human recombinant enzymes (hCES1A, hCES2A, hSA, hBchE) were analyzed. The incubation system (200 μL) consisted of PBS, each tested enzyme, and AB23A (ranging from 0 to 1,000 μM). After incubating for 1 h, the supernatants were then used for LC-UV analysis. The kinetic parameters of AB23A hydrolysis were fitted by the following Michaelis−Menten Eq. 1 ([Zhang et al., 2022]). V=(Vmax×[S])⁄(Km+[S]) (1) Here, K m is the Michaelis constant of AB23A hydrolysis, V max is the maximum velocity of AB23A hydrolysis, V max /K m is used to calculate the intrinsic clearance (CL int ).
# [4] = substrate: CC(=O)O[C@H](C[C@@H](C)C1=C2C[C@H](O)C3[C@@]4(C)CCC(=O)C(C)(C)C4CC[C@]3(C)[C@@]2(C)CC1)[C@H]1OC1(C)C; experiment: Kinetic analysis of AB23A hydrolysis in hCES1A; format: in vitro ADME, human; conditions: other: hCES1A
# Protocol: as §2
# [5] = substrate: CC(=O)O[C@H](C[C@@H](C)C1=C2C[C@H](O)C3[C@@]4(C)CCC(=O)C(C)(C)C4CC[C@]3(C)[C@@]2(C)CC1)[C@H]1OC1(C)C; experiment: Kinetic analysis of AB23A hydrolysis in hCES2A; format: in vitro ADME, human; conditions: other: hCES2A
# Protocol: as §2
molecule,measurement,setting,value
"O=[N+]([O-])c1ccc(OP(=O)(O)Oc2ccc([N+](=O)[O-])cc2)cc1 [BNPP, bis(p-nitrophenyl) phosphate]",Effect on formation of AB (AB23A hydrolysis) in HIMs,AB23A hydrolysis in HIMs,near-completely inhibited
same,Effect on AB23A hydrolysis in HLMs,AB23A hydrolysis in HLMs,completely blocked
"C[C@H](C[C@H](O)[C@H]1OC1(C)C)C1=C2C[C@H](O)[C@H]3[C@@]4(C)CCC(=O)C(C)(C)[C@@H]4CC[C@]3(C)[C@@]2(C)CC1 [AB, alisol B]",FXR agonist effect (transcriptional activation),"FXR; HEK293T cells, 5, 10, 20 μM, 48 h, GW4064 (10 μM) set at 100%",dose-dependently agonize FXR
same,FXR activation compared with AB23A,"FXR; HEK293T cells, low doses (5 and 10 μM)",slightly more potent than AB23A
same,Detection in mice plasma and liver,[1],readily detected
"CN(C)C(=O)C(CCN1CCC(O)(c2ccc(Cl)cc2)CC1)(c1ccccc1)c1ccccc1 [LPA, Loperamide]",Effect on formation of AB (AB23A hydrolysis) in HIMs,AB23A hydrolysis in HIMs,partially inhibit
same,Effect on AB23A hydrolysis in HLMs,AB23A hydrolysis in HLMs,slightly blocked
"O=C(O)CN(CCN(CC(=O)O)CC(=O)O)CC(=O)O [EDTA, Ethylenediaminetetraacetic acid]",Effect on formation of AB (AB23A hydrolysis) in human plasma,[2],negligible effects
same,Effect on AB23A hydrolysis in HLMs,AB23A hydrolysis in HLMs,negligible effects
"COc1ccc2c3c1O[C@H]1C[C@@H](O)C=C[C@@]31CCN(C)C2 [GA, galanthamine]",Effect on formation of AB (AB23A hydrolysis) in human plasma,[2],significantly inhibit
same,Effect on AB23A hydrolysis in HLMs,AB23A hydrolysis in HLMs,slightly blocked
"CC(C)(C)NC(=O)N[C@H](C(=O)N1C[C@H]2[C@@H]([C@H]1C(=O)NC(CC1CCC1)C(=O)C(N)=O)C2(C)C)C(C)(C)C (stereo partly shown) [boceprevir, Boceprevir]",Effect on formation of AB (AB23A hydrolysis) in human plasma,[2],negligible effects
same,Effect on AB23A hydrolysis in HLMs,AB23A hydrolysis in HLMs,negligible effects
hSA (Homo sapiens),Vmax,[3],0.0004 µmol/min/mg
same,Vmax/Km,[3],1.53 µL/min/mg
B1,Vmax,[4],0.0235 µmol/min/mg
same,Vmax/Km,[4],123 µL/min/mg
B2,Vmax,[5],0.0125 µmol/min/mg
same,Vmax/Km,[5],212 µL/min/mg

# Source: publication PMC10117764, “The roles of serine hydrolases and serum albumin in alisol B 23-acetate hydrolysis in humans” (Frontiers in Pharmacology, 2023)
